Target: T1, PI3Kβ (Homo sapiens, UniProt P42338)
T1 construct: made in house
Assay: TR-FRET enzymatic activity assay against PI3K isoforms
Type: biochemical
Conditions: 2×Km ATP, 2 μM PIP2, 30 minutes at 25° C., recombinant heterodimeric PI3Kβ 25-50 pM, read-out: IC50-PIP-Beta
Protocol: The compounds of formula (I) were characterized for their enzymatic activity against the PI3K isoforms. The activities were measured using a time-resolved fluorescence resonance energy transfer (TR-FRET) assay. TR-FRET monitored the formation of 3,4,5-inositol triphosphate molecule that competed with fluorescently labeled PIPS for binding to the GRP-1 pleckstrin homology domain protein.
Class I PI3K isoforms were expressed and purified as heterodimeric recombinant proteins. All assay reagents and buffers for the TR-FRET assay were purchased from Millipore. […] The compounds were added to the assay solution and incubated for 30 minutes at 25° C. The reactions were terminated with a final concentration of 10 mM EDTA, 10 nM labeled-PIPS, and 35 nM Europium labeled GRP-1 detector protein before reading TR-FRET on an Envision plate reader (Ex: 340 nm; Em: 615/665 nm; 100 μs delay and 500 μs read window).
The results were normalized based on positive (1 μM wortmanin) and negative (DMSO) controls, and the IC50 values for PI3K α, β, δ, and γ were calculated from the fit of the dose-response curves to a four-parameter equation. These assays generally produced results within 3-fold of the reported mean.

T1 sequence (P42338 whole entry): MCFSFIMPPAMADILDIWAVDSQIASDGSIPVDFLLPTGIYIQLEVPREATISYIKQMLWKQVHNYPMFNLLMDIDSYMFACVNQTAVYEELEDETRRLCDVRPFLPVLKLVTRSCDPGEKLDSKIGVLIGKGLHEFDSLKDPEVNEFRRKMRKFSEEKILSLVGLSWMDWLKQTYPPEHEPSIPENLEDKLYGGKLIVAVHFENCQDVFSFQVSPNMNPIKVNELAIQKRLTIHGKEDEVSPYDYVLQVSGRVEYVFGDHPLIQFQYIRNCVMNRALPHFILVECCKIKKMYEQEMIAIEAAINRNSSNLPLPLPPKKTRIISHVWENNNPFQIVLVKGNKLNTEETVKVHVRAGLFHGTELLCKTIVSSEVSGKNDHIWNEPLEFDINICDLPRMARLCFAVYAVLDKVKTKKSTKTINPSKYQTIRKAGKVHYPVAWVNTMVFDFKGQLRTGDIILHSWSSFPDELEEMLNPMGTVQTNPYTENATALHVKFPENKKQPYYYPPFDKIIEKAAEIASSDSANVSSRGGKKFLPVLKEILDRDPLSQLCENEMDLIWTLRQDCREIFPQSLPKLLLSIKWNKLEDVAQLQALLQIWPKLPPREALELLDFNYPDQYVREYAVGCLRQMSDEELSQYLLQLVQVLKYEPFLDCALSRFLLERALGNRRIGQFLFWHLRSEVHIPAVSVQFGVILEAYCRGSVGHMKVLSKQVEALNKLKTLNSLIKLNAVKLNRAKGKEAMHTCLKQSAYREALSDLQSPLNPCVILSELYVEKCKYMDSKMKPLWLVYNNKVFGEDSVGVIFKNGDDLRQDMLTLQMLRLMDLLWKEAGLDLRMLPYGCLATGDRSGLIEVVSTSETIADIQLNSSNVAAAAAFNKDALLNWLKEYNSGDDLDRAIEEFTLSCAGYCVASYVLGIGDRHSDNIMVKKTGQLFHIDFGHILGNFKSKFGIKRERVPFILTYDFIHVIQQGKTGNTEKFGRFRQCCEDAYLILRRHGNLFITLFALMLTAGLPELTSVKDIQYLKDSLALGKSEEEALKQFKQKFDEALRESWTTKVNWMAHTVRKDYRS
T1 sequence (P27986 whole entry partner): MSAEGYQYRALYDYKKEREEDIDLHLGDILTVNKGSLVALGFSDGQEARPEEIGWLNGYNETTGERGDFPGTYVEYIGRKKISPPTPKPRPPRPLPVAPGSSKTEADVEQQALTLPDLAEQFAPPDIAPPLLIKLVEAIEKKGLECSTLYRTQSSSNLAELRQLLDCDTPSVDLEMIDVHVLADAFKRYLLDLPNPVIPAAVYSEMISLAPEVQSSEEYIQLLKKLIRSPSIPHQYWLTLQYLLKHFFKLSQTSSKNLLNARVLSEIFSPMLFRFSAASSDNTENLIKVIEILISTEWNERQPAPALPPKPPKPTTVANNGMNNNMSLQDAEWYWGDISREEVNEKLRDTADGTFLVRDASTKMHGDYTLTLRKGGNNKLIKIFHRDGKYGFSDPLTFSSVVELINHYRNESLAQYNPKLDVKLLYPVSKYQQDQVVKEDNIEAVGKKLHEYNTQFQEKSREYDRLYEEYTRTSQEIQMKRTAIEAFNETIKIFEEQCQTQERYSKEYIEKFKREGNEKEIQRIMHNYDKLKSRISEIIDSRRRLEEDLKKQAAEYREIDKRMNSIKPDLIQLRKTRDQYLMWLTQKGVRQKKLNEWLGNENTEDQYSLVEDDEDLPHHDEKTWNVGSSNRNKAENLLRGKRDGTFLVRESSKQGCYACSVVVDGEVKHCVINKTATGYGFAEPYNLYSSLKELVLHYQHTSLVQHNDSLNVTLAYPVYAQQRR

SMILES | IC50
COC(=O)c1cc(N2CCOCC2)cc2c1nc(C)n2-c1cccc2ccccc12 [Compound 2-1, methyl 1-(naphthalen-1-yl)-2-methyl-6-morpholino-1H-benzo[d]imidazole-4-carboxylate] | 140 nM
COC(=O)c1cc(N2CCOCC2)cc2c1ncn2-c1cccc2ccccc12 [Compound 2-2, methyl 6-morpholin-4-yl-1-naphthalen-1-ylbenzimidazole-4-carboxylate] | 230 nM
CCOC(=O)c1nc2c(C(=O)OC)cc(N3CCOCC3)cc2n1-c1cccc2ccccc12 [Compound 2-3, 2-O-ethyl 4-O-methyl 6-morpholin-4-yl-1-naphthalen-1-ylbenzimidazole-2,4-dicarboxylate] | 700 nM
O=C(O)c1cc(N2CCOCC2)cc2c1ncn2-c1cccc2ccccc12 [Compound 3-1, 6-morpholin-4-yl-1-naphthalen-1-ylbenzimidazole-4-carboxylic acid] | > 10000 nM
Cc1nc2c(C(=O)O)cc(N3CCOCC3)cc2n1-c1cccc2ccccc12 [Compound 3-2, 2-methyl-6-morpholin-4-yl-l-naphthalen-1-ylbenzimidazole-4-carboxylic acid] | 1800 nM
Cc1nc2c(C(N)=O)cc(N3CCOCC3)cc2n1-c1ccc(F)c2ccccc12 [Compound 4-1, 1-(4-fluoronaphthalen-1-yl)-2-methyl-6-morpholino-1H-benzo[d]imidazole-4-carboxamide] | 87 nM
Cc1nc2c(C(N)=O)cc(N3CCOCC3)cc2n1-c1cnc2c(Cl)cccc2c1 [Compound 4-2, 1-(8-chloroquinolin-3-yl)-2-methyl-6-morpholino-1H-benzo[d]imidazole-4-carboxamide] | 2300 nM
Cc1nc2c(C(N)=O)cc(N3CCOCC3)cc2n1-c1cnc2cccc(Cl)c2c1 [Compound 4-3, 1-(5-chloroquinolin-3-yl)-2-methyl-6-morpholino-lH-benzo[d]imidazole-4-carboxamide] | 390 nM
Cc1nc2c(C(N)=O)cc(N3CCOCC3)cc2n1-c1cccc2c(F)cccc12 [Compound 4-4, 1-(5-fluoronaphthalen-1-yl)-2-methyl-6-morpholin-4-ylbenzimidazole-4-carboxamide] | 13 nM

The next lines start with the values.

IC50 | SMILES
42 nM | CCCc1nc2c(-c3nnc[nH]3)cc(N3CCOCC3)cc2n1-c1cccc2c(F)cccc12 (single isomer, unassigned) [Compound 6-1, 4-[3-(5-fluoronaphthalen-1-yl)-2-propyl-7-(4H-1,2,4-triazol-3-yl)benzimidazol-5-yl]morpholine]
3 nM | CCCc1nc2c(-c3nnc[nH]3)cc(N3CCOCC3)cc2n1-c1cccc2c(F)cccc12 (single isomer, unassigned) [Compound 6-2, 4-[3-(5-fluoronaphthalen-1-yl)-2-propyl-7-(4H-1,2,4-triazol-3-yl)benzimidazol-5-yl]morpholine]
9 nM | Cc1nc2c(-c3nnc[nH]3)cc(N3CCOCC3)cc2n1-c1ccc(F)c2ccccc12 [Compound 5-1, 4-(1-(4-fluoronaphthalen-1-yl)-2-methyl-4-(4H-1,2,4-triazol-3-yl)-1H-benzo[d]imidazol-6-yl)morpholine]
43 nM | Cc1nnc(-c2cc(N3CCOCC3)cc3c2nc(C)n3-c2ccc(F)c3ccccc23)[nH]1 [Compound 5-2, 4-[3-(4-fluoronaphthalen-1-yl)-2-methyl-7-(5-methyl-4H-1,2,4-triazol-3-yl)benzimidazol-5-yl]morpholine]
4200 nM | Cc1nc2c(-c3nnc[nH]3)cc(N3CCOCC3)cc2n1-c1cnc2ccc(Cl)cc2c1 [Compound 5-3, 4-(1-(6-chloroquinolin-3-yl)-2-methyl-4-(4H-1,2,4-triazol-3-yl)-1H-benzo[d]imidazol-6-yl)morpholine]
1200 nM | CCc1nc2c(-c3nnc[nH]3)cc(N3CCOCC3)cc2n1-c1cnc2ccccc2c1 [Compound 5-4, 4-(2-ethyl-1-(quinolin-3-yl)-4-(4H-1,2,4-triazol-3-yl)-lH-benzo[d]imidazol-6-yl)morpholine]
1200 nM | Cc1nc2c(-c3nnc[nH]3)cc(N3CCOCC3)cc2n1-c1cnc2cc(Cl)ccc2c1 [Compound 5-5, 4-(1-(7-chloroquinolin-3-yl)-2-methyl-4-(4H-1,2,4-triazol-3-yl)-1H-benzo[d]imidazol-6-yl)morpholine]
720 nM | Cc1nc2c(-c3nnc[nH]3)cc(N3CCOCC3)cc2n1-c1cnc2ccccc2c1 [Compound 5-6, 4-(2-methyl-1-(quinolin-3-yl)-4-(4H-1,2,4-triazol-3-yl)-1H-benzo[d]imidazol-6-yl)morpholine]
190 nM | Cc1nc2c(-c3nnc[nH]3)cc(N3CCOCC3)cc2n1-c1cnc2c(Cl)cccc2c1 [Compound 5-7, 4-(1-(8-chloroquinolin-3-yl)-2-methyl-4-(4H-1,2,4-triazol-3-yl)-H-benzo[d]imidazol-6-yl)morpholine]
28 nM | Cc1nc2c(-c3nnc[nH]3)cc(N3CCOCC3)cc2n1-c1cnc2cccc(Cl)c2c1 [Compound 5-8, 4-(1-(5-chloroquinolin-3-yl)-2-methyl-4-(4H-1,2,4-triazol-3-yl)-1H-benzo[d]imidazol-6-yl)morpholine]
220 nM | CCc1nc2c(-c3nnc[nH]3)cc(N3CCOCC3)cc2n1-c1ccc2ccccc2n1 [Compound 5-9, 4-(2-ethyl-1-(quinolin-2-yl)-4-(4H-1,2,4-triazol-3-yl)-1H-benzo[d]imidazol-6-yl)morpholine]
38 nM | Cc1nc2c(-c3nnc[nH]3)cc(N3CCOCC3)cc2n1-c1ccc2ccccc2c1 [Compound 5-10, 4-(2-methyl-1-(naphthalen-2-yl)-4-(4H-1,2,4-triazol-3-yl)-1H-benzo[d]imidazol-6-yl)morpholine]
6 nM | CCCc1nc2c(-c3nnc[nH]3)cc(N3CCOCC3)cc2n1-c1cccc2c(F)cccc12 [Compound 5-11, 4-[3-(5-fluoronaphthalen-1-yl)-2-propyl-7-(4H-1,2,4-triazol-3-yl)benzimidazol-5-yl]morpholine]
2 nM | Fc1cccc2c(-n3cnc4c(-c5nnc[nH]5)cc(N5CCOCC5)cc43)cccc12 [Compound 5-12, 4-[3-(5-fluoronaphthalen-1-yl)-7-(4H-1,2,4-triazol-3-yl)benzimidazol-5-yl]morpholine]
5 nM | Cc1nc2c(-c3nnc[nH]3)cc(N3CCOCC3)cc2n1-c1cccc2c(F)cccc12 [Compound 5-13, 4-[3-(5-fluoronaphthalen-1-yl)-2-methyl-7-(4H-1,2,4-triazol-3-yl)benzimidazol-5-yl]morpholine]
580 nM | Cc1nc2c(-c3nnc[nH]3)cc(N3CCOCC3)cc2n1-c1cc2ccccc2cn1 [Compound 5-14, 4-(1-(isoquinolin-3-yl)-2-methyl-4-(4H-1,2,4-triazol-3-yl)-1H-benzo[d]imidazol-6-yl)morpholine]
3400 nM | Cc1nnc(-c2cc(N3CCOCC3)cc3c2nc(C)n3-c2cc3ccccc3cn2)[nH]1 [Compound 5-15, 4-(1-(isoquinolin-3-yl)-2-methyl-4-(5-methyl-4H-1,2,4-triazol-3-yl)-1H-benzo[d]imidazol-6-yl)morpholine]
